Assay results as given in patent US20210361577A1, “LIPOPHILIC TRANSPORT PARTICLES FOR COSMETIC OR PHARMACEUTICAL ACTIVE INGREDIENTS” (IOI OLEO GMBH, priority 2018, published 2021).
Like-named read-outs stand apart in the source and are kept apart here.

Assays:
[1] = active ingredient loading of carrier particles made by spray drying; format: physicochemical; details: spray drying process
Description: The carrier particles which are provided fulfil their purpose when they are loaded with an active ingredient, in particular a pharmaceutical active ingredient. This may, for example, be carried out by means of a spray drying process in accordance with claim 22, in which the active ingredient and the PGFE or PGFEs are initially dissolved and/or suspended in a suitable organic solvent and then are separated from the solvent once more by spray drying. Examples of suitable solvents are the ether tetrahydrofuran, the alcohol ethanol, the ketone acetone, the ester ethyl acetate or the alkane heptane. It has been shown that by means of spray drying, loading with a pharmaceutical active ingredient of up to 30% by weight is possible.
Lipophilic carrier particles in accordance with claim 1 can advantageously be loaded with pharmaceutical active ingredients from the group formed by non-steroidal antirheumatic agents.

[2] = contact angle with purified water (hydrophobicity) and its storage stability; format: physicochemical; details: after 16 weeks at room temperature (20° C.) and at 40° C.
Method: An advantageous property of the PGFEs for lipophilic carrier particles in accordance with claim 1 which should be considered is the hydrophobicity, which can be determined by determining the contact angle. The determination of the hydrophobicity is carried out by determining the contact angle between the PGFE in the solid physical state and a droplet of purified water. According to Young's equation, cos θ=(γSV−γSL)/γLV, wherein γSL is the interfacial tension between the PGFE and water, γLV is the interfacial tension of the water droplet and γSV is the surface tension between the PGFE and the surrounding air. θ is the contact angle. Thus, the larger the contact angle θ, the higher is the surface tension between the PGFE and the water and the higher is the hydrophobicity of the PGFE under investigation. The contact angles for the proposed polyglycerol fatty acid esters also correlate with the HLB value which is often used in pharmaceutical technology, which is on a scale of 0 to 20 and provides information regarding the ratio of lipophilic to hydrophilic molecular fractions, wherein the hydrophilic fraction increases with increasing HLB value. […]

[3] = cited from earlier work

CC(C)Cc1ccc(C(C)C(=O)O)cc1 (centres unmarked) [ibuprofen]
loading of the carrier particles with active ingredient [1]: up to 30 % by weight

CCCCCCCCCCCCCCCCCC(=O)OCC(COC(=O)CCCCCCCCCCCCCCCCC)OC(=O)CCCCCCCCCCCCCCCCC [glycerol tristearate]
contact angle deviation from starting value on storage [2]: 40 °
increase in the crystal thickness ([3]; a- to b-modification transformation): approximately 67%
average lamellar structures per subcellular unit ([3]; a-modification): 6
average lamellar structures per subcellular unit ([3]; after complete transformation into the b-modification): 10.5
